This is an account of results in US8512970B2, “Rapid bioluminescence detection assay” (The Secretary of State for Health, priority 2009, dated 2013).

“Also recorded” adds a separate entry of the source. Structures can show the parent of a compound that is named as a salt.

Experiment [1] addresses T1, yeast AK (AK from Saccharomyces cerevisiae) (Saccharomyces cerevisiae, UniProt P07170).
T1 construct: purchased Sigma
As to the kind of experiment: Distinguishing reporter adenylate kinases from yeast adenylate kinase (FIG. 7B). It counts as biochemical.

In experiment [2] the target is T2, adenylate kinase from T. maritima (Thermotoga maritima, UniProt Q9X1I8).
T2 sequence (Q9X1I8 1-220): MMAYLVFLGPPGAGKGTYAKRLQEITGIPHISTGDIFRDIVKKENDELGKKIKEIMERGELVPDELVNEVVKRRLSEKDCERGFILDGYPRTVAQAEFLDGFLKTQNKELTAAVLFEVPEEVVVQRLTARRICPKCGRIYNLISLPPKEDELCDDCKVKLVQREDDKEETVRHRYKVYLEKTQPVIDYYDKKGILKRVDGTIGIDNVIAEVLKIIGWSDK
As to the kind of experiment: Inhibition of reporter adenylate kinase by Ap5a, ATP detected with luciferin/luciferase.
Method: (§1) The reporter adenylate kinases from S. acidocaldarius or T. maritima were purified as described previously. Rabbit myokinase (muscle adenylate kinase) was obtained from Sigma. 100 ng of each enzyme was incubated with the inhibitor at the concentrations shown in reaction buffer (15 mM MgAc, 10 mM tris, 1 mM EDTA pH 7.75) for 5 minutes. ADP was added to a final concentration of 70 μM and the reaction incubated before addition of luciferin and luciferase.

In another experiment the target is luciferase (Photinus pyralis, UniProt P08659). As to the kind of experiment: Effect of inhibitor on luciferase. The class given is biochemical.
luciferase, sequence (P08659 whole entry, species assumed): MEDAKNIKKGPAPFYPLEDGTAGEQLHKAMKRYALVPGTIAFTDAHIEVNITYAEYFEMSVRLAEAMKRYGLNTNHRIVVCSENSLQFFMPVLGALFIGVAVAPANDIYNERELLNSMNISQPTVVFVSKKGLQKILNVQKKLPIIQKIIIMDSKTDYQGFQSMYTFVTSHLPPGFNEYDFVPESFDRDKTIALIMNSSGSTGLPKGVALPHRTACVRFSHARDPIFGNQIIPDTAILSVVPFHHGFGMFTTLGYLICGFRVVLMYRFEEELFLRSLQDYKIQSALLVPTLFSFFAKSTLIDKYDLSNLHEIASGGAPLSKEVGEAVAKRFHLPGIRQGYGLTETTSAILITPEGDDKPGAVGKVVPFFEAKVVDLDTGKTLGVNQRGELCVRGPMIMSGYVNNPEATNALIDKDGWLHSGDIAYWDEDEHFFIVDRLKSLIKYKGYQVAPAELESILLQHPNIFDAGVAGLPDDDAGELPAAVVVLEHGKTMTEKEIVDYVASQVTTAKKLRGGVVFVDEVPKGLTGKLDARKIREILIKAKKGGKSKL
Experiment [3] deals with T3, Rabbit myokinase (muscle adenylate kinase) (Oryctolagus cuniculus, UniProt P00569).
T3 sequence (P00569 1-194): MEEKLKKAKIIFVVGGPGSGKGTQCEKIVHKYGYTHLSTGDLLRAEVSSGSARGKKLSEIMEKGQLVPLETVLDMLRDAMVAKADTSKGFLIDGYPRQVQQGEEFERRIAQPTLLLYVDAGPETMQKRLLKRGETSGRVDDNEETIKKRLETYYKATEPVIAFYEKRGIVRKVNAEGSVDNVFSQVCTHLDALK
As to the kind of experiment: Inhibition of non-reporter (endogenous) tissue kinase by Ap5a, ATP detected with luciferin/luciferase.
Method: as §1

Experiment [4] concerns the target adenylate kinase from S. acidocaldarius (Sulfolobus acidocaldarius, UniProt P35028). As to the kind of experiment: Inhibition of reporter adenylate kinase by Ap5a, ATP detected with luciferin/luciferase.
Method: as §1

T1 sequence (P07170 whole entry): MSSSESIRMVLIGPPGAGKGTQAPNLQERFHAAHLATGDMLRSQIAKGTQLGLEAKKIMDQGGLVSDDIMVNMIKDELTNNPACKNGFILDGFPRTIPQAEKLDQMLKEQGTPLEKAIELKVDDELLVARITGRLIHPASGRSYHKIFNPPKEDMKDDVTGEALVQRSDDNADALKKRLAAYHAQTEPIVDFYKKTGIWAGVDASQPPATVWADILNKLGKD
adenylate kinase from S. acidocaldarius, sequence (P35028 whole entry): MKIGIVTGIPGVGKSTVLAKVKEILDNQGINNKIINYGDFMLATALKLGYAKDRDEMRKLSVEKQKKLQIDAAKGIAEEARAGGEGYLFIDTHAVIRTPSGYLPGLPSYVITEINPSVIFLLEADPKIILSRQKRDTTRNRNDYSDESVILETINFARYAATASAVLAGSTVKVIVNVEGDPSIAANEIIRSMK

For the molecule `Nc1ncnc2c1ncn2[C@@H]1O[C@H](COP(=O)(O)OP(=O)(O)OP(=O)(O)OP(=O)(O)OC[C@H]2O[C@@H](n3cnc4c(N)ncnc43)[C@H](O)[C@@H]2O)[C@@H](O)[C@H]1O` [Ap4A, Diadenosine tetraphosphate], the “distinguishing bacterial and archaeal reporter adenylate kinases from enzyme of fungal origin (yeast AK)” value in experiment [1] is reported as “do not allow for an assay to distinguish”.
A word on the IC50: it is the concentration needed to halve the response being measured. Lower therefore signals inhibition by little substance. For `Nc1ncnc2c1ncn2[C@@H]1O[C@H](COP(=O)(O)OP(=O)(O)OP(=O)(O)OP(=O)(O)OP(=O)(O)OC[C@H]2O[C@@H](n3cnc4c(N)ncnc43)[C@H](O)[C@@H]2O)[C@@H](O)[C@H]1O` [Ap5A, Diadenosine pentaphosphate pentasodium salt], the concentration for half-maximal inhibition (IC50) in experiment [2] came out at 4.3 µM; in experiment [3], 60 nM; in experiment [4], 10.4 µM. Further, on luciferase, the “effect on the activity of the luciferase” value is reported as “does not have a detrimental effect”. Also, in experiment [1], the “distinguishing bacterial and archaeal reporter adenylate kinases from enzyme of fungal origin (yeast AK)” value is “can still be used to distinguish; also recorded: discriminates reporter kinase from non-reporter kinase”.
Turning to Diadenosine hexaphosphate [Ap6A], the “distinguishing bacterial and archaeal reporter adenylate kinases from enzyme of fungal origin (yeast AK)” value in experiment [1] is on record as “do not allow for an assay to distinguish”.
